# According to patent EP0307172A2, “Improvements in or relating to specific 5-HT3 antagonists” (ELI LILLY AND COMPANY, priority 1987, dated 1989):
# Tests used:
# 5-HT₃ receptor = biological target: T1, 5-HT₃ receptor (Rattus norvegicus, UniProt P35563); experiment: Inhibition of serotonin-induced Von Bezold-Jarisch reflex in rats; type: in vivo; conditions: rat, iv, 15 minutes prior to 5-HT, read-out: Percent Inhibition of Reflex in Rats; for inhibition at 0.001 mg/kg: 0.001 mg/kg I.V.; for inhibition at 0.003 mg/kg: 0.003 mg/kg I.V.; for inhibition at 0.01 mg/kg: 0.01 mg/kg I.V.; for inhibition at 0.03 mg/kg: 0.03 mg/kg I.V.
# T1 construct: from tissue
# T1 sequence (P35563 24-483): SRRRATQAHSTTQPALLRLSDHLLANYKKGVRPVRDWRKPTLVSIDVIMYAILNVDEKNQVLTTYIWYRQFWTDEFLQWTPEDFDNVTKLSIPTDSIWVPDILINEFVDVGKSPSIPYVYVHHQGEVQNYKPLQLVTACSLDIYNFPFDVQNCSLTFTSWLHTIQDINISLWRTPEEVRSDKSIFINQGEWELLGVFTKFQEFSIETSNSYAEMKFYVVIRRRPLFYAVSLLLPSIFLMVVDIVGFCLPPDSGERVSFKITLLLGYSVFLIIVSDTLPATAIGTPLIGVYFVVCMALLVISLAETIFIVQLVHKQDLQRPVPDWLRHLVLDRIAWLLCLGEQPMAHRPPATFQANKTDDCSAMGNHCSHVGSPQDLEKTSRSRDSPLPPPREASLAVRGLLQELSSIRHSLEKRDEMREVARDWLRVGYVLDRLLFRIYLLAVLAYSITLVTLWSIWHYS
# Text: The compounds of Formula I of this invention are long-acting, orally effective specific 5-HT₃ receptor antagonists, rendering them useful for the treatment of migraine. Because of this mechanism, the compounds of this invention should also be useful for treating emesis, motion sickness, ischemic bowel disease, diabetic gastric paresis, relaxation of the gastro-intestinal tract for instrumentation, other gastro-intestinal pain following surgery, obstetrics or as in abdominal cramps, and for treating CNS disorders such as schizophrenia and anxiety. The ability of these compounds to antagonize the effects of 5-HT was assessed by their inhibition of the Von Bezold-Jarisch reflex induced by 5-HT injected intravenously into the rat (See Paintal, Physiol. Rev., 53, 159 (1973)). When administered by the intravenous route 15 minutes prior to the administration of 5-HT, the compounds of this invention were effective in inhibiting the serotonin-induced Bezold-Jarisch reflex as summarized in Table 1 below: Table 1
# cisplatin-induced emesis = experiment: Blockade of cisplatin-induced emesis in dogs; type: in vivo; conditions: Canis lupus familiaris, iv, read-out: ED₅₀
# Text: These compounds may also be used as antiemetic agents. […] Since 5HT₃ receptors are prevalent in the GI tract, other potential uses include other diseases of the gastro- intestinal tract, such as ischemic bowel, esophageal reflux, etc.
SMILES,inhibition at 0.001 mg/kg (5-HT₃ receptor) [%],inhibition at 0.003 mg/kg (5-HT₃ receptor) [%],ED50 (cisplatin-induced emesis) [mg/kg],inhibition at 0.01 mg/kg (5-HT₃ receptor) [%],inhibition at 0.03 mg/kg (5-HT₃ receptor) [%]
"CN1[C@@H]2CC[C@H]1C[C@@H](NC(=O)c1cc(Cl)cc3c1OC(C)(C)C3)C2 [Example 19, Endo-5-chloro-2,3-dihydro-2,2-dimethyl-N-(8-methyl-8-azabicyclo[3.2.1.]oct-3-yl)-7-benzofurancarboxamide (Z)-2-butenedioate]",66,90,0.0356,,
"CN1[C@@H]2CC[C@H]1C[C@@H](OC(=O)c1cc(Cl)c3c(c1)CC(C)(C)O3)C2 [Example 29, Endo-2,2-dimethyl-7-chloro-2,3-dihydro-5-benzofurancarboxylic acid, 8-methyl-8-azabicyclo[3.2.1]oct-3-yl ester (Z)-2-butenedioate]",,,,-4,
"CN1[C@@H]2CC[C@H]1C[C@@H](NC(=O)c1c(Cl)ccc3c1OC(C)(C)C3)C2 [Example 50, Endo-2,2-dimethyl-2,3-dihydro-6-chloro-N-(8-methyl-8-azabicyclo[3.2.1]oct-3-yl)-7-benzofurancarboxamide (Z)-2-butenedioate]",,,,-3,
"CN1[C@@H]2CC[C@H]1C[C@@H](OC(=O)c1cc(Cl)cc3c1OC(C)(C)C3)C2 [Example 25, Endo-5-chloro-2,3-dihydro-2,2-dimethyl-7-benzofurancarboxylic acid, 8-methyl-8-azabicyclo[3.2.1]oct-3-yl ester (Z)-2-butenedioate]",10,19,,83,
"COc1cc2c(c(C(=O)N[C@H]3C[C@H]4CC[C@@H](C3)N4C)c1)OC(C)C2 (mixture of isomers) [Example 27, dl-endo-2,3-dihydro-5-methoxy-2-methyl-N-(8-methyl-8-azabicyclo[3.2.1]oct-3-yl)-7-benzofurancarboxamide (Z)-2-butenedioate]",,,,20,
"CN1[C@@H]2CC[C@H]1C[C@H](NC(=O)c1cccc3c1OC(C)(C)C3)C2 [Example 39, Exo-2,3-dihydro-2,2-dimethyl-N-(8-methyl-8-azabicyclo[3.2.1]oct-3-yl)-7-benzofurancarboxamide (Z)-2-butenedioate]",,-2,,53,82
"CN1[C@@H]2CC[C@H]1C[C@@H](NC(=O)c1cccc3c1SC(C)(C)C3)C2 [Example 16, Endo-2,3-dihydro-2,2-dimethyl-N-(8-methyl-8-azabicyclo[3.2.1]oct-3-yl)benzo[b]thiophene-7-carboxamide (Z)-2-butenedioate]",,,,0.1,
"CN1[C@@H]2CC[C@H]1C[C@@H](NC(=O)c1ccc(Cl)c3c1OC(C)(C)C3)C2 [Example 18, Endo-4-chloro-2,3-dihydro-2,2-dimethyl-N-(8-methyl-8-azabicyclo[3.2.1]oct-3-yl)-7-benzofurancarboxamide (Z)-2-butenedioate]",,,,1.2,
"CN1C2CCC1CC(NC(=O)c1cc(F)cc3c1OC(C)(C)C3)C2 (centres unmarked) [Example 58, 5-Fluoro-2,3-dihydro-2,2-dimethyl-N-(8-methyl-8-azabicyclo[3.2.1]oct-3-yl)-7-benzofurancarboxamide (Z)-2-butenedioate]",,,,71,
"CN1[C@@H]2CC[C@H]1C[C@@H](NC(=O)c1ccc3c(c1)CC(C)(C)O3)C2 [Example 20, Endo-2,3-dihydro-2,2-dimethyl-N-(8-methyl-8-azabicyclo[3.2.1]oct-3-yl)-5-benzofurancarboxamide (Z)-2-butenedioate]",,,,16,
"Cc1cc2c(c(C(=O)N[C@H]3C[C@H]4CC[C@@H](C3)N4C)c1)OC(C)(C)C2 [Example 21, Endo-2,3-dihydro-2,2,5-trimethyl-N-(8-methyl-8-azabicyclo[3.2.1]oct-3-yl)-7-benzofurancarboxamide (Z)-2-butenedioate]",0.3,11,,87,
"CC1Cc2cccc(C(=O)N[C@H]3C[C@H]4CC[C@@H](C3)N4C)c2O1 (mixture of isomers) [Example 33, dl-endo-2,3-dihydro-2-methyl-N-(8-methyl-8-azabicyclo[3.2.1]oct-3-yl)-7-benzofurancarboxamide (Z)-2-butenedioate]",,,,22,57
"CN1[C@@H]2CC[C@H]1C[C@@H](NC(=O)c1cc(Cl)cc3c1OC(C)(C)CC3)C2 [Example 61, Endo-2,2-dimethyl-6-chloro-N-(8-methyl-8-azabicyclo[3.2.1]oct-3-yl)-8-chromancarboxamide (Z)-2-butenedioate]",,30,,91,
